Results as given in ChEMBL document CHEMBL4346724, “Porphyrinoid photosensitizers mediated photodynamic inactivation against bacteria” (Eur J Med Chem, 2019).

Columns and labels:
[1] = system: Mycobacterium tuberculosis; assay: Photodynamic antibacterial activity against multidrug resistant Mycobacterium tuberculosis assessed as reduction in bacterial burden at 10 ug/ml preincubated for 2 hrs in dark followed by light irradiation at 50 J/cm2 for 500 secs; assay type: functional
[2] = system: Mycobacterium tuberculosis; assay: Photodynamic antibacterial activity against extensively drug resistant Mycobacterium tuberculosis assessed as reduction in bacterial burden at 10 ug/ml preincubated for 2 hrs in dark followed by light irradiation at 50 J/cm2 for 500 secs; assay type: functional

SMILES: C=Cc1c(C)c2cc3nc(c(C=O)c4[nH]c(cc5nc(cc1[nH]2)C(C)=C5C)c(C)c4C(=O)O)[C@@H](CCC(=O)O)[C@@H]3C
- log(activity) [1]: 3.1
- log(activity) [2]: 2.8
